EC50 and inhibition data for 17 compounds are collected here from patent US10285982B2, “3-(1H-pyrrolo[2,3-B]pyridin-2-yl)-1H-pyrazolo[3,4-C]pyridines and therapeutic uses thereof” (Samumed, LLC, priority 2015, dated 2019).

Structures are written as SMILES. Some results are limits rather than exact numbers.

Common to all, as to type: cell-based
For one assay, the system named is IL-6 (THP-1 cells). Put plainly: IL-6 inhibition in LPS-stimulated THP-1 cells (HTRF). Conditions: Homo sapiens; for EC50: IL-6 in THP-1 cells, LPS 500 ng/mL, 22 hours; for inhibition at 10 µM: given where EC50 >10 μM, IL-6, THP-1 cells, LPS, read-out: percent inhibition at 10 μM. In short, it runs like this:
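THP-1 cells, serum-reduced (1% FBS) for 24 h, were preincubated with compound (10-point 1:3 series from 10 μM, 0.1% DMSO) for 2 h, then stimulated with 500 ng/mL LPS for 22 h at 37° C. IL-6 was read by HTRF (665/620 nm ratio) and normalized to DMSO. EC50 from four-parameter fit; % inhibition at 10 μM given if EC50 >10 μM.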

Assay [1] concerns Wnt activity (Sp5-Luc reporter, SW480 colon carcinoma cells). The assay can be described thus: Wnt activity screening assay, Sp5-Luc reporter gene in SW480 cells. Conditions: Homo sapiens; for inhibition at 10 µM: given where EC50 >10 μM, read-out: percent inhibition at 10 μM; for EC50: overnight incubation. The procedure, abridged: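 Luminescence (BrightGlo) was normalised to DMSO-only wells and fitted with a four-parameter variable-slope model for EC50; beyond 10 μM, % inhibition at 10 μM is given. Stable Sp5-Luc SW480 reporter cells, 4,000/well in 1% FBS, were exposed overnight at 37 °C to compounds, top 10 μM, 1:3 dilutions, 0.1% DMSO.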

For another assay, the system named is SW480 colon cancer cells. The assay can be described thus: Cell viability assay (CellTiter-Blue). Conditions: Homo sapiens, 96 h, four days; for inhibition at 10 µM: given where EC50 >10 μM, read-out: percent inhibition at 10 μM. In short, it runs like this:
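SW480 colon cancer cells (~2×10^3/well) exposed to 8-point 1:3 dilutions from 10 μM to 0.0045 μM for four days at 37 °C/5% CO2. Viability read by resazurin (CellTiter-Blue) fluorescence after ~3 h, Ex 560/Em 590 nm. EC50 from non-linear regression; percent inhibition at 10 μM given when EC50 >10 μM.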

Take `c1ccc(-c2cc3c(-c4cc5c(-c6ccncc6)ccnc5[nH]4)n[nH]c3cn2)nc1` [Compound 140, 5-(Pyridin-2-yl)-3-(4-(pyridin-4-yl)-1H-pyrrolo[2,3-b]pyridin-2-yl)-1H-pyrazolo[3,4-c]pyridine]: the 50% effective concentration (EC50) (with IL-6 (THP-1 cells); in assay [1]; in the assay on SW480 colon cancer cells) was greater than 10 µM throughout. Further, the inhibition at 10 µM with IL-6 (THP-1 cells) was found to be 23.5%; in assay [1], 24.3%; in the assay with SW480 colon cancer cells it was 17.5%.

Take `c1cc(N2CCCCC2)c2cc(-c3n[nH]c4cnc(-c5cncc(CN6CCCC6)c5)cc34)[nH]c2n1` [Compound 182, 3-(4-(Piperidin-1-yl)-1H-pyrrolo[2,3-b]pyridin-2-yl)-5-(5-(pyrrolidin-1-ylmethyl)pyridin-3-yl)-1H-pyrazolo[3,4-c]pyridine]: the half-maximal effective concentration (EC50) (in the assay with IL-6 (THP-1 cells); in assay [1]; with SW480 colon cancer cells) was greater than 10 µM in each case. Further, the inhibition at 10 µM worked out at 39% in the assay on IL-6 (THP-1 cells), 41.4% in assay [1] and 54.9% in the assay with SW480 colon cancer cells.

Turning to `O=C(Nc1cncc(-c2cc3c(-c4cc5c(N6CCCCC6)ccnc5[nH]4)n[nH]c3cn2)c1)C1CC1` [Compound 188, N-(5-(3-(4-(Piperidin-1-yl)-1H-pyrrolo[2,3-b]pyridin-2-yl)-1H-pyrazolo[3,4-c]pyridin-5-yl)pyridin-3-yl)cyclopropanecarboxamide], the values for the 50% effective concentration (EC50) (in the assay with IL-6 (THP-1 cells); in assay [1]; with SW480 colon cancer cells) were greater than 10 µM, 1.23 µM and 1.28 µM, respectively. Also, in the assay with IL-6 (THP-1 cells), the inhibition at 10 µM amounted to 16.2%.

For `CN1CCN(c2ccnc3[nH]c(-c4n[nH]c5cnc(-c6cncc(N(C)C)c6)cc45)cc23)CC1` [Compound 231, N,N-Dimethyl-5-(3-(4-(4-methylpiperazin-1-yl)-1H-pyrrolo[2,3-b]pyridin-2-yl)-1H-pyrazolo[3,4-c]pyridin-5-yl)pyridin-3-amine], the EC50 (in the assay on IL-6 (THP-1 cells); in assay [1]; with SW480 colon cancer cells) was greater than 10 µM throughout. The inhibition at 10 µM with IL-6 (THP-1 cells) was 3.7%; in assay [1] it was 8.2%; in the assay with SW480 colon cancer cells, 9.2%.

Take `CN1CCN(c2ccnc3[nH]c(-c4n[nH]c5cnc(-c6cncc(CNCC7CCCC7)c6)cc45)cc23)CC1` [Compound 249, 1-Cyclopentyl-N-((5-(3-(4-(4-methylpiperazin-1-yl)-1H-pyrrolo[2,3-b]pyridin-2-yl)-1H-pyrazolo[3,4-c]pyridin-5-yl)pyridin-3-yl)methyl)methanamine]: the figures for the EC50 (in the assay with IL-6 (THP-1 cells); in assay [1]; with SW480 colon cancer cells) were 7.87 µM, greater than 10 µM and 4.29 µM, respectively. In addition, the inhibition at 10 µM in assay [1] turned out to be 41.4%.

Consider `CC(C)CC(=O)Nc1cncc(-c2cc3c(-c4cc5cccnc5[nH]4)n[nH]c3cn2)c1` [Compound 254, N-(5-(3-(1H-Pyrrolo[2,3-b]pyridin-2-yl)-1H-pyrazolo[3,4-c]pyridin-5-yl)pyridin-3-yl)-3-methylbutanamide], for which the results for the EC50 (with IL-6 (THP-1 cells); in assay [1]; in the assay on SW480 colon cancer cells) were 0.529 µM, greater than 10 µM and greater than 10 µM, respectively. Also, the inhibition at 10 µM in assay [1] was determined as 12.4%; in the assay on SW480 colon cancer cells it was 20.2%.

Regarding `c1cncc(-c2cc3c(-c4cc5cccnc5[nH]4)n[nH]c3cn2)c1` [Compound 256, 5-(Pyridin-3-yl)-3-(1H-pyrrolo[2,3-b]pyridin-2-yl)-1H-pyrazolo[3,4-c]pyridine], the EC50 in the assay with IL-6 (THP-1 cells) was 0.023 µM; in assay [1] it was greater than 10 µM; with SW480 colon cancer cells, greater than 10 µM. In addition, the inhibition at 10 µM amounted to 57.7% in assay [1] and 19.3% with SW480 colon cancer cells.

Take `O=C(Cc1ccccc1)Nc1cncc(-c2cc3c(-c4cc5cccnc5[nH]4)n[nH]c3cn2)c1` [Compound 262, N-(5-(3-(1H-Pyrrolo[2,3-b]pyridin-2-yl)-1H-pyrazolo[3,4-c]pyridin-5-yl)pyridin-3-yl)-2-phenylacetamide]: the EC50 (in the assay with IL-6 (THP-1 cells); in assay [1]; in the assay with SW480 colon cancer cells) was greater than 10 µM each time. The results for the inhibition at 10 µM (with IL-6 (THP-1 cells); in assay [1]; in the assay with SW480 colon cancer cells) were 26.7%, 9.1% and 26.5%, respectively.

Regarding `O=C(Nc1cncc(-c2cc3c(-c4cc5cccnc5[nH]4)n[nH]c3cn2)c1)c1ccccc1` [Compound 263, N-(5-(3-(1H-Pyrrolo[2,3-b]pyridin-2-yl)-1H-pyrazolo[3,4-c]pyridin-5-yl)pyridin-3-yl)benzamide], the 50% effective concentration (EC50) (in the assay with IL-6 (THP-1 cells); in assay [1]; in the assay with SW480 colon cancer cells) was greater than 10 µM throughout. Also, the inhibition at 10 µM with IL-6 (THP-1 cells) is 39.2%; in assay [1], 17%; with SW480 colon cancer cells it was 22.5%.

For the compound `O=C(Nc1cncc(-c2cc3c(-c4cc5cccnc5[nH]4)n[nH]c3cn2)c1)C1CC1` [Compound 272, N-(5-(3-(1H-Pyrrolo[2,3-b]pyridin-2-yl)-1H-pyrazolo[3,4-c]pyridin-5-yl)pyridin-3-yl)cyclopropanecarboxamide], the EC50 was 3.06 µM in the assay with IL-6 (THP-1 cells), greater than 10 µM in assay [1] and greater than 10 µM in the assay on SW480 colon cancer cells. Also, the inhibition at 10 µM in assay [1] stood at 19.3%; with SW480 colon cancer cells it was 23.3%.

Turning to `O=C(Nc1cncc(-c2cc3c(-c4cc5cccnc5[nH]4)n[nH]c3cn2)c1)C1CCCCC1` [Compound 275, N-(5-(3-(1H-Pyrrolo[2,3-b]pyridin-2-yl)-1H-pyrazolo[3,4-c]pyridin-5-yl)pyridin-3-yl)cyclohexanecarboxamide], the EC50 (in the assay with IL-6 (THP-1 cells); in assay [1]; with SW480 colon cancer cells) was greater than 10 µM each time. Besides, the inhibition at 10 µM in the assay on IL-6 (THP-1 cells) came out at 24.7%; in assay [1] it was 14%; in the assay on SW480 colon cancer cells, 9.5%.

In the case of `FC1(F)CCN(Cc2cncc(-c3cc4c(-c5cc6cccnc6[nH]5)n[nH]c4cn3)c2)C1` [Compound 278, 5-(5-((3,3-Difluoropyrrolidin-1-yl)methyl)pyridin-3-yl)-3-(1H-pyrrolo[2,3-b]pyridin-2-yl)-1H-pyrazolo[3,4-c]pyridine], the EC50 amounted to 0.029 µM in the assay with IL-6 (THP-1 cells), 1.35 µM in assay [1] and 5.01 µM in the assay on SW480 colon cancer cells.

In the case of `Nc1cncc(-c2cc3c(-c4cc5c(-c6ccoc6)ccnc5[nH]4)n[nH]c3cn2)c1` [Compound 311, 5-(3-(4-(Furan-3-yl)-1H-pyrrolo[2,3-b]pyridin-2-yl)-1H-pyrazolo[3,4-c]pyridin-5-yl)pyridin-3-amine], the EC50 (in the assay on IL-6 (THP-1 cells); in assay [1]; in the assay with SW480 colon cancer cells) was greater than 10 µM in each case. In addition, the inhibition at 10 µM in the assay with IL-6 (THP-1 cells) was 36.3%; in assay [1], 23.2%; in the assay with SW480 colon cancer cells it was 5.5%.

On to `CCCC(=O)Nc1cncc(-c2cc3c(-c4cc5c(-c6cc(F)cc(NCCN(C)C)c6)ccnc5[nH]4)n[nH]c3cn2)c1` [Compound 465, N-(5-(3-(4-(3-((2-(Dimethylamino)ethyl)amino)-5-fluorophenyl)-1H-pyrrolo [2,3-b]pyridin-2-yl)-1H-pyrazolo[3,4-c]pyridin-5-yl)pyridin-3-yl)butyramide], for which the concentration giving a half-maximal response (EC50) (in the assay on IL-6 (THP-1 cells); in assay [1]; in the assay with SW480 colon cancer cells) was greater than 10 µM throughout. Further, the inhibition at 10 µM was 21.5% in the assay on IL-6 (THP-1 cells), 16.1% in assay [1] and 10.6% in the assay with SW480 colon cancer cells.

With `CN(C)CCNc1cc(F)cc(-c2ccnc3[nH]c(-c4n[nH]c5cnc(-c6ccncc6)cc45)cc23)c1` [Compound 466, N^1-(3-Fluoro-5-(2-(5-(pyridin-4-yl)-1H-pyrazolo[3,4-c]pyridin-3-yl)-1H-pyrrolo[2,3-b]pyridin-4-yl)phenyl)-N^2,N^2-dimethylethane-1,2-diamine], the EC50 (with IL-6 (THP-1 cells); in assay [1]; in the assay on SW480 colon cancer cells) was greater than 10 µM throughout. Further, the results for the inhibition at 10 µM (in the assay with IL-6 (THP-1 cells); in assay [1]; in the assay with SW480 colon cancer cells) were 5.9%, 16.5% and 16.8%, respectively.

Regarding `CN(C)CCNc1cc(F)cc(-c2ccnc3[nH]c(-c4n[nH]c5cnc(-c6cncnc6)cc45)cc23)c1` [Compound 475, N^1-(3-Fluoro-5-(2-(5-(pyrimidin-5-yl)-1H-pyrazolo[3,4-c]pyridin-3-yl)-1H-pyrrolo[2,3-b]pyridin-4-yl)phenyl)-N^2,N^2-dimethylethane-1,2-diamine], the EC50 (with IL-6 (THP-1 cells); in assay [1]; in the assay on SW480 colon cancer cells) was greater than 10 µM throughout. Further, the results for the inhibition at 10 µM (with IL-6 (THP-1 cells); in assay [1]; in the assay with SW480 colon cancer cells) were 6.3%, 10.9% and 17%, respectively.

For `Fc1cccc(-c2ccnc3[nH]c(-c4n[nH]c5cnc(-c6cncc(OCc7ccccc7)c6)cc45)cc23)c1` [Compound 518, 5-(5-(Benzyloxy)pyridin-3-yl)-3-(4-(3-fluorophenyl)-1H-pyrrolo[2,3-b]pyridin-2-yl)-1H-pyrazolo[3,4-c]pyridine], the half-maximal effective concentration (EC50) (with IL-6 (THP-1 cells); in assay [1]; in the assay with SW480 colon cancer cells) was greater than 10 µM in each case. Moreover, the inhibition at 10 µM worked out at 0% with IL-6 (THP-1 cells), 3.3% in assay [1] and 41.5% in the assay on SW480 colon cancer cells.
